According to patent US20240306642A1, “Herbicidal Compositions” (SYNGENTA CROP PROTECTION AG, priority 2021, published 2024):

Key:
Type in all cases: in vivo
Setaria faberi (SETFA) = test: Post-emergence efficacy, Setaria faberi; conditions: 15DAA, rate 3 g/ha, 100=total damage to plant, 0=no damage
From the text: (§1) When active ingredients are combined, the activity to be expected (E) for any given active ingredient combination obeys the so-called Colby Formula and can be calculated as follows (Colby, S. R., Calculating synergistic and antagonistic responses of herbicide combination, Weeds, Vol. 15, pages 20-22; 1967): • ppm =milligrams of active ingredient (a.i.) per litre • X=% action by first active ingredient using p ppm of the active ingredient • Y=% action by second active ingredient using q ppm of the active ingredient.
(§2) According to Colby, the expected action of active ingredients A+B using p+q ppm of active ingredient is represented by the following formula: […]
If the action actually observed (O) is greater than the expected action E then the action of the combination is super-additive, i.e. there is a synergistic effect. […]
(§3) The efficacy of various compositions of the present invention were tested against plants including the following species: Echinochloa crus-gali (ECHCG), Lolium multiflorum(LOLMU), Setaria faberi (SETFA) and Digitaria insularis (TRCIN). The compositions are applied post-emergence, and the tests evaluated at certain days-after-application (DAA) as indicated. The tests were evaluated (100=total damage to plant; 0=no damage to plant), and the results are shown below in Tables B1 to B4.

[1] = test system: Lolium multiflorum (LOLMU); test: Post-emergence efficacy, Lolium multiflorum; conditions: 15DAA
From the text: as §1, §2
(§4) If the action actually observed (O) is greater than the expected action E then the action of the combination is super-additive, i.e. there is a synergistic effect. In mathematical terms, synergism corresponds to a positive value for the difference of (O-E). In the case of purely complementary addition of activities (expected activity), said difference (O-E) is zero. A negative value of said difference (O-E) signals a loss of activity compared to the expected activity.
as §3

[2] = test system: Echinochloa crus-gali (ECHCG); test: Post-emergence efficacy, Echinochloa crus-gali; conditions: 16DAA
From the text: as §1, §2, §4, §3

[3] = test system: Digitaria insularis (TRCIN); test: Post-emergence efficacy, Digitaria insularis; conditions: 13DAA
From the text: as §1, §2, §4, §3

[4] = rate 1.88 g/ha, 100=total damage, 0=no damage

CCSC(C)CC1CC(=O)C(/C(CC)=N/OC/C=C/Cl)=C(O)C1 (stereo not shown) [Formula B1, clethodim]
Observed (Setaria faberi (SETFA)): 25

CCCCOC(=O)[C@@H](C)Oc1ccc(Oc2ccc(C(F)(F)F)cn2)cc1 [Formula B4a, fluazifop-P-butyl]
Observed ([1]; rate 8 g/ha): 68

COC(=O)[C@@H](C)Oc1ccc(Oc2ncc(C(F)(F)F)cc2Cl)cc1 [Formula B5a, haloxyfop-P-methyl]
Observed ([2]; rate 8 g/ha): 13

CCc1cc(C)cc(CC)c1-c1c(OC(=O)C(C)(C)C)n2n(c1=O)CCOCC2 [Formula B6, pinoxaden]
Observed ([3]; rate 0.94 g/ha): 0
Observed [3, 4]: 20

CC#Cc1ccc(C2=C(OC(=O)OC)C3CCC(C3)C2=O)c(OC)c1 (stereo not shown) [Ic]
Observed ([1]; rate 6.25 g/ha, 100=total damage, 0=no damage): 44
Observed ([1]; rate 12.5 g/ha): 59
Observed ([2]; rate 3.125 g/ha, 100=total damage, 0=no damage): 30
Observed ([2]; rate 6.25 g/ha): 88
Observed [3, 4]: 48
